Data published in US20140051635A1, “COMBINATION THERAPY FOR TREATMENT OF CANCER” (UNIVERSITY OF SOUTH ALABAMA, priority 2011, published 2014).
Like-named read-outs stand apart in the source and are kept apart here.

How the values were obtained:
[1] = tested on: SPARC expression in colon cancer cell lines and primary colon cancers; settings: colon cancer cell lines and primary colon cancers with SPARC promoter hypermethylation; cited from earlier work
[2] = tested on: advanced or metastatic solid tumors; settings: human, in vivo
From the text: Eligible patients include those with solid tumors that progressed or were stable as best response on at least one previous therapy. […] Further criteria included: female and male patients; age≧19 years; ECOG PS≦2; adequate bone marrow, liver and heart function; and signed written-informed consent.
Serum and/or tissue samples, where appropriate, were collected for correlative studies.
Outcome evaluation for primary endpoints included: type, incidence, severity, timing, seriousness, and relatedness of adverse events, and laboratory abnormalities; and objective response rate. Outcome evaluation for secondary endpoints included: progression-free survival (PFS); and expression of tissue SPARC protein. Statistical Analysis included the standard 3+3 design. Patients were accrued to each dose level in cohorts of up to 3-6. Escalation was continued until a dose limiting toxicity (DLT) was observed or the highest dose-level was reached. The best response, including complete response (CR), partial response (PR), stable disease (SD), or progression of disease (PD), for each patient was determined. Descriptive statistics were used to summarize all patient characteristics, treatment administration and compliance, and protein biomarkers. Safety data were determined for all patients receiving at least 1 dose of study treatment.

[3] = mice; cited from earlier work
[4] = rats; cited from earlier work
[5] = cited from earlier work
[6] = parenteral, administered weekly; cited from earlier work
MDS = MDS patients; cited from earlier work
AML = settings: 27 patients assigned to azacitidine; cited from earlier work
higher-risk MDS = settings: cited from earlier work
[7] = tested on: breast cancer, patients pre-treated with doxorubicin; settings: cited from earlier work

## Nc1ncn([C@H]2C[C@H](O)[C@@H](CO)O2)c(=O)n1 [5Aza-dC]
[1]
  SPARC expression: able to upregulate SPARC expression in most cases

## Nc1ncn([C@@H]2O[C@H](CO)[C@@H](O)[C@H]2O)c(=O)n1 [azacitidine]
[2]
  maximum tolerated dose of azacitadine in this regimen: 75 mg/m^2
[3]
  embryotoxicity and reproductive performance: embryotoxic and reduced the reproductive performance
[4]
  embryotoxicity and reproductive performance: embryotoxic and reduced the reproductive performance
[5]; 75 mg/m^2 IV
  systemic IV clearance: 147 L/h
[5]; 75 mg/m^2 SC vs IV
  bioavailability for the SC dose: ~89%
[5]; 75 mg/m^2 single SC injection or IV infusion over 10 minutes
  tolerability: generally well-tolerated
[6]
  maximum tolerated doses: up to 500 mg/m^2
MDS
  partial remission: rare
AML
  median survival time: 19.3 months
higher-risk MDS; 75 mg/m^2/day x 7 days in 28 day cycles, N=179
  median overall survival: 24.4 months
higher-risk MDS; azacitidine arm
  two-year survival: 51%
higher-risk MDS; in vivo
  tolerability: well tolerated

## CC(=O)O[C@@]12CO[C@@H]1C[C@H](O)[C@@]1(C)C(=O)[C@H](O)C3=C(C)[C@@H](OC(=O)[C@H](O)[C@@H](NC(=O)OC(C)(C)C)c4ccccc4)C[C@@](O)([C@@H](OC(=O)c4ccccc4)[C@H]21)C3(C)C [docetaxel]
[7]
  median overall survival: 11.4 months
  median time to disease progression: 4.4 months
